Measurements reported in the supplement of paper PMC6045584.
± gives the standard deviation of the averaged measurements.

compound: CCCS(=O)(=O)Nc1ccc(F)c(C(=O)c2c[nH]c3ncc(Cl)cc23)c1F [PLX-4720]; experiment: surviving fraction relative to DMSO-only wells; higher = less growth inhibition; settings: 50 nM; exposure time: 5 days
Outline: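 Lines were retained only if, across three screens, replicate Pearson r was >0.7 and median Z' was >0.3. Viability was measured as CellTiter-Glo luminescence and reported as surviving fraction relative to the median of DMSO-only wells. Readings followed 10 minutes at room temperature, after log-phase tumour cells seeded at 250–500 per well in 384-well plates had been exposed, from 24 hours after seeding, continuously for five days to inhibitors at 0.5, 1, 5, 10, 50, 100, 500 and 1000 nM.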

Test System | surviving fraction
MDAMB453 BREAST | 0.977 ± 0.075
MDAMB468 BREAST | 1.04 ± 0.03
MFM223 BREAST | 0.97 ± 0.11
MG63 BONE | 0.941 ± 0.012
MHM BONE | 0.97 ± 0.022
NCIH441 LUNG | 0.933 ± 0.045
NOS1 BONE | 1.17 ± 0.059
NY BONE | 0.949 ± 0.014
OS25HAL BONE | 0.976 ± 0.01
OSHN BONE | 0.944 ± 0.035
PCI30 HEADNECK | 1 ± 0.024
RDES SOFT TISSUE | 1.04 ± 0.11
S68 BREAST | 1 ± 0.31
SAOS2 BONE | 1.08 ± 0.038
SCC36 HEADNECK | 0.97 ± 0.058
SCC47 HEADNECK | 0.981 ± 0.03
SCC90 HEADNECK | 1.18 ± 0.12
SG27 HEADNECK | 0.788 ± 0.12
SG28 HEADNECK | 0.513 ± 0.014

Test System | surviving fraction
SG31 HEADNECK | 0.642 ± 0.068
SG32 HEADNECK | 0.366 ± 0.042
SG43 HEADNECK | 1.13 ± 0.13
SIHA CERVIX | 0.993 ± 0.022
SJSA1 BONE | 1.03 ± 0.033
SKBR3 BREAST | 1.05 ± 0.12
SNU475 LIVER | 0.392 ± 0.029
SUM44 BREAST | 1.07 ± 0.072
SUM149 BREAST | 0.289 ± 0.02
SUM149.B1*.S BREAST | 0.517 ± 0.056
SUM159 BREAST | 1.08 ± 0.25
SYO1 SYNOVIAL | 0.408 ± 0.14
T47D BREAST | 0.914 ± 0.015
U2OS BONE | 1.06 ± 0.054
VCAP PROSTATE | 0.966 ± 0.01
VP229 BREAST | 1.03 ± 0.065
YAMATO SYNOVIAL | 0.281 ± 0.024
ZR751 BREAST | 0.783 ± 0.08

same assay, conditions: 100 nM; exposure time: 5 days

Test System | surviving fraction
MDAMB361 BREAST | 0.918 ± 0.097
MDAMB436 BREAST | 0.943 ± 0.066
MDAMB453 BREAST | 1.03 ± 0.083
MDAMB468 BREAST | 1.08 ± 0.037
MFM223 BREAST | 1.01 ± 0.062
MG63 BONE | 0.958 ± 0.015
MHM BONE | 1.01 ± 0.031
NCIH441 LUNG | 0.968 ± 0.025
NOS1 BONE | 1.25 ± 0.12
NY BONE | 0.9663 ± 0.004
OS25HAL BONE | 0.98 ± 0.015
OSHN BONE | 0.9783 ± 0.0029
PCI30 HEADNECK | 1.07 ± 0.082
RDES SOFT TISSUE | 0.989 ± 0.25
S68 BREAST | 1.06 ± 0.12
SAOS2 BONE | 1.12 ± 0.077
SCC36 HEADNECK | 0.983 ± 0.017
SCC47 HEADNECK | 1.09 ± 0.03
SCC90 HEADNECK | 1.25 ± 0.077
SG27 HEADNECK | 0.942 ± 0.11

Test System | surviving fraction
SG28 HEADNECK | 0.964 ± 0.027
SG31 HEADNECK | 0.843 ± 0.048
SG32 HEADNECK | 0.804 ± 0.079
SG43 HEADNECK | 1.27 ± 0.15
SIHA CERVIX | 1.07 ± 0.068
SJSA1 BONE | 1.03 ± 0.062
SKBR3 BREAST | 1.01 ± 0.15
SNU475 LIVER | 0.919 ± 0.021
SUM44 BREAST | 1.02 ± 0.052
SUM149 BREAST | 0.991 ± 0.094
SUM149.B1*.S BREAST | 0.968 ± 0.042
SUM159 BREAST | 1.1 ± 0.26
SYO1 SYNOVIAL | 0.942 ± 0.017
T47D BREAST | 1.04 ± 0.06
U2OS BONE | 1.08 ± 0.059
VCAP PROSTATE | 1.11 ± 0.14
VP229 BREAST | 1.1 ± 0.068
YAMATO SYNOVIAL | 1.28 ± 0.086
ZR751 BREAST | 0.826 ± 0.099

same assay, conditions: 500 nM; exposure time: 5 days

Test System | surviving fraction
MDAMB361 BREAST | 0.96 ± 0.097
